The values below come from PMC9699400 (Molecules, 2022).

Series [1] deals with AChE. As to conditions: cited from earlier work.
Series [2] deals with PC12 cells. The conditions noted are these: 10 µM; ref 54 (Liu et al.); cited from earlier work.
The target in series [3] is T1, AChE (Electrophorus electricus, UniProt O42275).
T1 construct: purchased Sigma-Aldrich Co. (St. Louis, MO, USA)
Nature of the series: Inhibitory type kinetics analysis (reversibility plots, Lineweaver-Burk). Type of series: biochemical. As to the method:
The type of inhibition was determined using the Lineweaver-Burk plot in double reciprocal form.

In series [4] the target is T1, AChE. The series can be described thus: Time-course inactivation kinetics of AChE. Type of series: biochemical. The conditions noted are these: for Transition Free Energy Change ΔΔG°: ΔΔG° = −RTlnk. The procedure:
We determined enzyme activities at diverse contents every 3 min for 0–30 min and every 5 min for 30–70 min.

The target of series [5] is T1, AChE. The series can be described thus: Fluorescence quenching of AChE. Type of series: binding. The procedure:
After each drop, the solution was mixed and left for 3 min to balance the solution. The fluorescence emission spectra at 290 to 450 nm were scanned at an excitation wavelength of 280 nm, with emission and excitation slot widths of 2.5 nm.

The target in series [6] is T1, AChE. Nature of the series: CD spectra, secondary structure of AChE. The source says: The MOS 450 CD spectrometer (Bio-Logic, Claix, France) was used to measure the CD spectra for AChE solution at 190 to 250 nm under ambient temperature. […] The method to analyze the content of specific secondary structures has been reported in our previous study.
The subject of series [7] is PC12 cells. Nature of the series: Quercetin-induced toxicity in PC12 cells (MTT). The conditions noted are these: 1–80 µM, 24 h, n = 6. As to the method:
(§1) PC12 cells were procured from Nanjing KeyGen Biotech Co. Ltd. (Nanjing, China). The cells were maintained in high-glucose DMEM containing 10% fetal bovine serum (FBS) and 1% P-S and incubated under 5% CO2 and 37 °C. PC12 cells in the logarithmic phase were seeded in 96-well (approximately 2 × 10^4/well) or 24-well (approximately 1 × 10^5/well) culture plates, incubated for 24 h, followed by the replacement of the medium.

The subject of series [8] is Aβ25–35-induced PC12 cells. The series can be described thus: Aβ25–35-induced PC12 cell viability (MTT). The conditions noted are these: then 20 µM Aβ25–35 24 h, model group 51.43 ± 2.61. As to the method: as §1
(§2) Each group was provided with six duplicate wells based on different measurement indexes.
PC12 cells were inoculated in 96-well plates for 24 h.

For series [9], the system named is Aβ25–35-induced PC12 cells. The series can be described thus: MDA content in Aβ25–35-induced PC12 cells. Type of series: cell-based. The conditions noted are these: quercetin pretreatment (1–40 µM), 20 µM Aβ25–35 24 h; p < 0.01 relative to the model group. The procedure:
as §2
(§3) For cell culture and grouping sample addition, please refer to Section 2.9. After incubation, the culture plate was centrifuged at 200× g for 5 min using a plate centrifuge, and the supernatant was discarded. Next, the cells were collected and broken by ultrasound and centrifuged at 3000 r/min at 4 °C for l0 min, and the supernatant was collected for subsequent assays. The OD was recorded at 532 and 405 nm, respectively, following the instructions mentioned in the manual for the MDA and GSH kits. Intracellular MDA content and GSH levels are expressed as percentages of the control.

Series [10] has as its system Aβ25–35-induced PC12 cells. The series can be described thus: GSH level in Aβ25–35-induced PC12 cells. Type of series: cell-based. The procedure:
as §2, §3

[11] abbreviates: molar ratio quercetin:AChE 10:1.

“And” between values parts separate entries of the source, which are not always exact repeats. Identical values can stand only once. Counter-ions that a name gives are not always drawn. Like-named read-outs stand apart in the source and are kept apart here. Marks after values point to notes of the source that are not given here.

T1 sequence (O42275 24-633): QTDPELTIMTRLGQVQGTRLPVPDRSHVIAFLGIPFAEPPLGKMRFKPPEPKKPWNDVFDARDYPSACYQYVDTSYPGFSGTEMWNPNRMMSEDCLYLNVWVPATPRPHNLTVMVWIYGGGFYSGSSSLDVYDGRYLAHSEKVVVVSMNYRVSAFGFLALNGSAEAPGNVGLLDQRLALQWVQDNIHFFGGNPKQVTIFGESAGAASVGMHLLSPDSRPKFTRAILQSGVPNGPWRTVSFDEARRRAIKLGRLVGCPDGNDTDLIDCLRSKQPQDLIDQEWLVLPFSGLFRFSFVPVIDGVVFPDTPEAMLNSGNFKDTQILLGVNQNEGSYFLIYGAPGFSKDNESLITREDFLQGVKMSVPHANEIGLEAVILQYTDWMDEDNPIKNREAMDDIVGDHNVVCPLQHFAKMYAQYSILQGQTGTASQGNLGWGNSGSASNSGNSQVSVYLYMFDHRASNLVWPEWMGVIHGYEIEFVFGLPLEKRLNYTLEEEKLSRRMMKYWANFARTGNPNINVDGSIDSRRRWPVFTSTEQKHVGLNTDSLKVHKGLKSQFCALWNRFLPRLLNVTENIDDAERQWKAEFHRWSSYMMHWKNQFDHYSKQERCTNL

The IC50 is the concentration that gives 50% inhibition. For `O=C1c2c(O)cc(O)cc2OC(c2ccc(O)c(O)c2)C1O` (stereo not drawn) [taxifolin, reference compound], the IC50 in series [1] was 54 ± 1.58 µM.
`C[C@@H]1O[C@@H](Oc2c(-c3ccc(O)c(O)c3)oc3cc(O)cc(O)c3c2=O)[C@H](O)[C@H](O)[C@H]1O` [quercitrin, reference compound]: in [1] (no reference at the value itself), the IC50 is 94.5 µM.
For the compound `COc1ccc2c3c1O[C@H]1C[C@@H](O)C=C[C@@]31CCN(C)C2` [galantamine hydrobromide], in [2], the “protection of cells against Aβ25–35 neurotoxicity” value is on record as “significantly protected”.
In the case of `O=c1c(O)c(-c2ccc(O)c(O)c2)oc2cc(O)cc(O)c12` [quercetin, 3,3′,4′,5,7-pentahydroxyflavone], the type of inhibition entry in series [3] (Lineweaver–Burk, c(AChE) = 0.57 nM, quercetin 0–12.0 µM) is “mixed inhibitory type”. Moreover, the reversibility of inhibition entry in series [3] (plots of v versus [AChE], c(ATCI) = 0.25 mM, quercetin 0–8.0 µM) was “reversible inhibitor”. Besides, the “αKi (binding to AChE–ATCI complex)” value in series [3] (secondary plot of Lineweaver–Burk y-intercepts) amounted to […]. Further, the “Inactivation Rate Constant k” value in [4] (quercetin 1.5 µM) is […]; in series [4] (quercetin 3.0 µM), […]; in series [4] (quercetin 6.0 µM) it was […]; in series [4] (quercetin 15.0 µM), […]. Also, the “Transition Free Energy Change ΔΔG°” value in series [4] (quercetin 1.5 µM) came to […]; in series [4] (quercetin 3.0 µM) it was […]; in series [4] (quercetin 6.0 µM), […]; in [4] (quercetin 15.0 µM), […]. In addition, the “bimolecular quenching rate constant Kq, magnitude order” value in series [5] (25, 31 and 37 °C) is on record as […]. Further, the figures for the “Gibbs free energy ∆G°” value in series [5] (25 °C), in [5] (31 °C) and in series [5] (37 °C) were […], […] and […], respectively. Moreover, the “binding site quantity n” value in [5] (25 °C) is […]; in [5] (31 °C) it was […]; in series [5] (37 °C) it was […]. Besides, the “quenching constant KSV” value in series [5] (25 °C, pH 7.6) is recorded as […]; in series [5] (31 °C) it was […]; in [5] (37 °C) it was […]. Besides, the “enthalpy change ∆H°” value in series [5] (van't Hoff equation, 25–37 °C) was […]. For the same compound, the “entropy change ∆S°” value in series [5] (van't Hoff equation, 25–37 °C) was […]. The “β-Sheet of AChE” value in [6] (molar ratio quercetin:AChE 2:1, free AChE 18.62 ± 0.06) is […]; in [6] (molar ratio quercetin:AChE 6:1), […]; in [6] (setting [11]) it was […]. Further, the “β-Turn of AChE” value in series [6] (molar ratio quercetin:AChE 2:1, free AChE 19.18 ± 0.28) was […]; in series [6] (molar ratio quercetin:AChE 6:1), […]; in [6] (setting [11]) it was […]. The “Random Coil of AChE” value in series [6] (molar ratio quercetin:AChE 2:1, free AChE 28.02 ± 0.65) was […]; in series [6] (molar ratio quercetin:AChE 6:1) it was […]; in [6] (setting [11]), […]. Besides, the “α-Helix of AChE” value in [6] (molar ratio quercetin:AChE 2:1, free AChE 34.35 ± 0.74) is […]; in series [6] (setting [11]), […]. The “cytotoxicity (cell viability, MTT)” value in [7] is recorded as “no toxic effect”. The “cell viability, % of the control group” value in series [8] (pretreatment 1 µM) was found to be […]; in series [8] (pretreatment 10 µM), […]; in [8] (pretreatment 20 µM), […]; in series [8] (pretreatment 40 µM), 78.61 ± 3.26%; in series [8] (pretreatment 80 µM) it was […]. In addition, the “release of MDA” value in [9] is recorded as “inhibited”. The “GSH levels versus model group” value in [10] (1 µM pretreatment, p > 0.05) is on record as “no statistical difference”. The “intracellular GSH levels versus model group” value in series [10] (10, 20, and 40 µM pretreatment, dose-dependent) is “increased”. Further, the IC50 in series [1] (reported by Jung) is […]; in [1] (reported by Khan), […].
